# Assay: in-vitro permeation study utilizing modified Franz cells (flux)
# Format: in vitro ADME, human
# Conditions: diclofenac sodium, acid and potassium as single entities in formulations similar to the examples; particularly with oleic acid and dipropylene glycol
# Method: The flux data was collected from an in-vitro permeation study utilizing modified Franz cells with stratum corneum obtained from human cadaver skin by the heat separation technique. The receiver solution for this study was 0.9% NaCl with 0.01% NaN3 in deionized water. Franz cells were maintained at about 32° C. for the duration of this study. Flux samples were analyzed by HPLC.
compound,measurement,value
O=C(O)Cc1ccccc1Nc1c(Cl)cccc1Cl [diclofenac potassium],"flux rate, drug forms fluxed as single entities",highest rate

# Reference: patent US8852628B1, “Transdermal drug delivery system for diclofenac” (Noven Pharmaceuticals, Inc., priority 2009, dated 2014)
